Reference: US6355616B1, “Derivative compounds derived from or based on bactericidal/permeability-increasing protein” (priority 1999, dated 2002)

B1: BPI: protein isolated from the granules of mammalian polymorphonuclear leukocytes (protein, UniProt P17213 32-487, looked up)
Bactericidal …: VNPGVVVRISQKGLDYASQQGTAALQKELKRIKIPDYSDSFKIKHLGKGHYSFYSMDIREFQLPSSQISMVPNVGLKFSISNANIKISGKWKAQKRFLKMSGNFDLSIEGMSISADLKLGSNPTSGKPTITCSSCSSHINSVHVHISKSKVGWLIQLFHKKIESALRNKMNSQVCEKVTNSVSSELQPYFQTLPVMTKIDSVAGINYGLVAPPATTAETLDVQMKGEFYSENHHNPPPFAPPVMEFPAAHDRMVYLGLSDYFFNTAGLVYQEAGVLKMTLRDDMIPKESKFRLTTKFFGTFLPEVAKKFPNMKIQIHVSASTPPHLSVQPTGLTFYPAVDVQAFAVLPNSSLASLFLIGMHTTGSMEVSAESNRLVGELKLDRLLLELKHSNIGPFPVELLQDIMNYIVPILVLPRVNEKLQKGFPLPTPARVQLYNVVLQPHQNFLLFGADVVYK

Experiments:
[1] = test system: Candida albicans, SLU-1; test: 28-day comparative survival efficacy study in mice systemically infected with Candida albicans; format: in vivo, male DBA/2 mice; details: mice infected iv with C. albicans SLU-1; two doses less than 5 mg/kg; initial experiments (p>0.5)
Protocol: Derivatized peptide-based constructs are tested for activity upon oral administration (oral activity) in a 28-day comparative survival efficacy study in mice systemically infected with Candida albicans. Specifically, male DBA/2 mice (Charles River Laboratories) six weeks of age are dosed with 7.9×10^4 Candida albicans, SLU-1 in 100 μL intravenously via the tail vein in a single dosage on day zero (0). However, other routes of administration, including intraperitoneal (ip) and subcutaneous (sc) routes may be administered. Amphotericin B will provide complete protection at 0.5 mg/kg qod (100% survival). Mortality data will be subjected to Kaplan-Meier survival analysis. All treatment groups may be considered statistically significant vs. saline at p values <0.05.
Treatment begins immediately thereafter with 400 μL oral gavage of either 0.5% dextrose, or derivative compound in 0.5% dextrose at various dosage levels (e.g., 10 mg/kg or 20 mg/kg) according to a prescribed dosing regimen (e.g. every other day for a total of eight times). Amphotericin B (Fungizone®) is administered intravenously at 0.5 mg/kg as a positive control every other day for a total of eight times. Twice-day monitoring (once daily on weekends and holidays) for mortality is performed. The animals treated with antiflngal derivative compound show improvement in mortality compared with the dextrose-treated controls, preferably statistically significant improvement (p-value of […]).

[2] = test system: Candida albicans SLU-1; test: Radial diffusion assay; format: cell-based; details: 30 mm^2 area of growth inhibition, calculated by PROBIT analysis
Protocol: In the radial diffusion assay procedures, the CA-1 cultures and derivatized peptide solutions were prepared as in the broth microdilution assay procedure described above, i.e., CA-1 was grown to exponential phase in SDB. Ten (10) mL of molten underlayer agarose comprising 3% Sabouraud Dextrose broth, 1% agarose (Pharmacia, Piscataway, N.J.), 0.02% Tween 20, and 10 mM sodium phosphate at pH 7.4, was added to polystyrene tubes and maintained in a 56° C. water bath until the addition of yeast. Tubes were cooled to approximately 45° C., yeast were added to give a final concentration of 1×10^6 CFU/mL, and the tubes were mixed again by inverting. The contents were poured into leveled, square petri dishes and distributed evenly. […] A series of wells were punched into the hardened agarose using a sterile 3 mm punch attached to a vacuum apparatus to achieve a uniform, 3 mm diameter well.
Derivatized peptide sequences to be assayed were 2-fold serially diluted in 10 mM Dulbecco's PBS (D-PBS) starting from a concentration of approximately […]. Five μL of each dilution were added to each well and the plates were incubated at 37° C. for 3 hours to allow for complete diffusion of the test compounds. An overlayer of 10 mL of molten agarose comprising 6% Sabouraud Dextrose broth, 1% agarose, and 10 mM sodium phosphate, pH 7.4, (at approximately 45° C.) was then added and plates were incubated overnight at 37° C. Following this overnight incubation, a dilute Coomassie solution was poured into the plates and allowed to stain for 24 hours to enhance visualization of the zones.
Clear zones of growth inhibition around each well were measured with calipers. The actual area of growth inhibition (mm^2) was calculated by subtracting the area of the well. Table II below sets out the results of the radial diffusion assays for a series of tested peptide-based constructs in terms of the number of picomoles (pmol) of compound required to establish a 30 mm^2 area of growth inhibition of Candida albicans SLU-1 calculated by PROBIT analysis (e.g., calculated from regression of the linear portion of log-concentration dose-response curve, log pmol/well vs. net area of inhibition).

[3] = test system: Candida albicans designated CA-1, Strain SLU-1; format: cell-based; details: designated CA-1, Strain SLU-1, 24 h
Protocol: In each broth microdilution assay screening procedure, a colony of Candida albicans designated CA-1, Strain SLU-1 that was received from the laboratories of G. Matuschak and A. Lechner, St. Louis University Hospital, St. Louis, Mo., where the strain was maintained, was inoculated into a tube containing 5 mL Sabouraud Dextrose broth (2% dextrose, 1% neopeptone) and incubated at 37° C. with shaking. The overnight culture was diluted 1:50 into 5 ml of fresh broth and incubated for 3 hours at 37° C. to exponential phase growth. Organisms were pelleted by centrifugation in a Beckman J-6M centrifuge for 5 minutes at 3000 rpm (1500×g) and the pellets were resuspended in 5 mL phosphate buffered saline (PBS) and the optical density (OD) at 570 nm was determined. On the basis of the determination that one OD unit equals 3×10^7 colony forming units/mL (CFU/mL), yeast cells were diluted to 5×10^3 CFU/mL in Sabouraud Dextrose broth (SBD).
Derivatized peptide sequences based on Domain III of BPI to be screened which were originally constituted in Dulbecco's-PBS, were two-fold serially diluted in SDB starting from a concentration of 128 μg/mL. Equal volumes (100 μL) of yeast suspension as prepared above and derivatized peptide solution were added to wells of a 96-well sterile, flat bottom, non-pyrogenic tissue culture microtiter plate (Costar, Cambridge, Mass.) to reach a final volume of 200 μL/well. The plate was incubated on a shaker at 37° C. for 24 hours. All assays were performed in triplicate. Following the incubation period, plates were read in an ELISA plate reader at 595 nm wavelength to determine the minimum inhibitory concentration (MIC), i.e., the lowest concentration required to reduce the optical density at 595 nm to below 0.1 OD.

[4] = test system: human, rabbit and sheep red blood cells and several human tumor cell lines; details: cited from earlier work
[5] = test system: gram-negative bacteria; details: broad range of gram-negative bacteria; concentrations as low as; cited from earlier work
[6] = test system: Candida albicans and Candida parapsilosis; details: 10^−6 M; pH 7.0 or 5.5; cited from earlier work
[7] = test system: Staphylococcus aureus (four strains), Staphylococcus epidermidis, Streptococcus faecalis, Bacillus subtilis, Micrococcus lysodeikticus, and Listeria …; details: 160 μg/ml; pH of either 7.0 or 5.5; cited from earlier work

| Molecule | improvement in mortality compared with dextrose-treated controls [1] | Radial Diffusion (pmol to achieve 30 mm^2 zone C. albicans SLU1) [2] | Broth Microdilution (MIC values in μg/mL C. albicans SLU1) [3] [µg/mL] | toxicity to higher eukaryotic cells [4] | concentration exhibiting anti-bacterial activity [5] | toxic effect on fungi [6] | toxic effect on gram-positive organisms [7] |
| --- | --- | --- | --- | --- | --- | --- | --- |
| CC[C@@H](C)[C@@H](NC(=O)[C@@H](CC(C)C)NC(=O)[C@@H](Cc1c[nH]c2ccccc12)NC(=O)[C@@H](CCCCN)NC(=O)CCCC[C@@H]1SC[C@@H]2NC(=O)N[C@@H]21)C(=O)N[C@H](CCC(N)=O)C(=O)N[C@H](CC(C)C)C(=O)N[C@H](Cc1ccccc1)C(=O)N[C@H](Cc1c[nH]cn1)C(=O)N[C@H](CCCCN)C(=O)N[C@H](CCCCN)C(N)=O [XMP.519] | did not exhibit statistically significant improvement | 170 pmol | 1 |  |  |  |  |
| CC[C@@H](C)[C@@H](NC(=O)[C@@H](CC(C)C)NC(=O)[C@@H](Cc1c[nH]c2ccccc12)NC(=O)[C@@H](CCCCN)NC(=O)c1ccc2c(c1)-c1ccccc1-2)C(=O)N[C@H](CCC(N)=O)C(=O)N[C@H](CC(C)C)C(=O)N[C@H](Cc1ccccc1)C(=O)N[C@H](Cc1c[nH]cn1)C(=O)N[C@H](CCCCN)C(=O)N[C@H](CCCCN)C(N)=O [XMP.534] | did not exhibit statistically significant improvement | >3,371 pmol | 4 |  |  |  |  |
| B1 |  |  |  | non-toxic | 10^−8 to 10^−9 M | no toxic effect | no toxic effect |
